In PubChem BioAssay AID1963833 (Molecular Pharmacology Branch, DTP, NCI, 2024):

Tested on: 883617-216-R-J1-PDC complex spheroid viability
Assay: Anticancer human tumor 883617-216-R-J1-PDC patient-derived bladder carcinoma cell line growth inhibition [POLQ]
Settings: for IC50: curve of first compound; for viability, T/C: stronger effect = lower value
Method in brief: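 PDC + HUVEC + MSC complex spheroids; POLQ inhibitors ± partner drugs; top conc. at/near clinical Cmax, else 10 microM (SN-38 1 microM), half-log dilutions; 37 degrees C, 5% CO2.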

[1] = second compound 0.0316 µM, first compound 0.0316 µM
[2] = second compound 0.0316 µM, first compound 0.1 µM
[3] = second compound 0.0316 µM, first compound 0.316 µM
[4] = second compound 0.0316 µM, first compound 1 µM
[5] = second compound 0.0316 µM, first compound 3.16 µM
[6] = second compound 0.0316 µM, first compound 10 µM
[7] = second compound 0.1 µM, first compound 0.0316 µM
[8] = second compound 0.1 µM, first compound 0.1 µM
[9] = second compound 0.1 µM, first compound 0.316 µM
[10] = second compound 0.1 µM, first compound 1 µM
[11] = second compound 0.1 µM, first compound 3.16 µM
[12] = second compound 0.1 µM, first compound 10 µM
[13] = second compound 0.316 µM, first compound 0.0316 µM
[14] = second compound 0.316 µM, first compound 0.1 µM
[15] = second compound 0.316 µM, first compound 0.316 µM
[16] = second compound 0.316 µM, first compound 1 µM
[17] = second compound 0.316 µM, first compound 3.16 µM
[18] = second compound 0.316 µM, first compound 10 µM
[19] = second compound 1 µM, first compound 0.0316 µM
[20] = second compound 1 µM, first compound 0.1 µM
[21] = second compound 1 µM, first compound 0.316 µM
[22] = second compound 1 µM, first compound 1 µM
[23] = second compound 1 µM, first compound 3.16 µM
[24] = second compound 1 µM, first compound 10 µM
[25] = second compound 3.16 µM, first compound 0.0316 µM
[26] = second compound 3.16 µM, first compound 0.1 µM
[27] = second compound 3.16 µM, first compound 0.316 µM
[28] = second compound 3.16 µM, first compound 1 µM
[29] = second compound 3.16 µM, first compound 3.16 µM
[30] = second compound 3.16 µM, first compound 10 µM
[31] = second compound 10 µM, first compound 0.0316 µM
[32] = second compound 10 µM, first compound 0.1 µM
[33] = second compound 10 µM, first compound 0.316 µM
[34] = second compound 10 µM, first compound 1 µM
[35] = second compound 10 µM, first compound 3.16 µM
[36] = second compound 10 µM, first compound 10 µM
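Further: spheroids exposed to compounds for seven days before readout.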
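Wherever viability, T/C is given: 100% = DMSO vehicle control viability.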

O=C(c1cc(Cc2n[nH]c(=O)c3ccccc23)ccc1F)N1CCN(C(=O)C2CC2)CC1 + Cc1cccc(N(C)C(=O)C2C(O)CCN2c2nc(C)cc(C(F)(F)F)c2C#N)c1
IC50 (second compound 0.0316 µM): > 10 µM | IC50 (second compound 0.1 µM): > 10 µM | IC50 (second compound 0.316 µM): > 10 µM | IC50 (second compound 1 µM): > 10 µM | IC50 (second compound 3.16 µM): > 10 µM | IC50 (second compound 10 µM): > 10 µM | viability, T/C [1]: 111% | viability, T/C [2]: 89.4% | viability, T/C [3]: 82.2% | viability, T/C [4]: 94.9% | viability, T/C [5]: 79.3% | viability, T/C [6]: 64.6% | viability, T/C [7]: 111% | viability, T/C [8]: 94% | viability, T/C [9]: 91% | viability, T/C [10]: 90.2% | viability, T/C [11]: 80.3% | viability, T/C [12]: 66.7% | viability, T/C [13]: 112% | viability, T/C [14]: 90.3% | viability, T/C [15]: 89.8% | viability, T/C [16]: 93.1% | viability, T/C [17]: 82.6% | viability, T/C [18]: 70.4% | viability, T/C [19]: 98.7% | viability, T/C [20]: 94.1% | viability, T/C [21]: 90.9% | viability, T/C [22]: 90.5% | viability, T/C [23]: 92% | viability, T/C [24]: 66.4% | viability, T/C [25]: 93.3% | viability, T/C [26]: 94.6% | viability, T/C [27]: 90.5% | viability, T/C [28]: 78.3% | viability, T/C [29]: 87.3% | viability, T/C [30]: 71.6% | viability, T/C [31]: 114% | viability, T/C [32]: 107% | viability, T/C [33]: 120% | viability, T/C [34]: 99.9% | viability, T/C [35]: 95% | viability, T/C [36]: 77.5%

O=c1[nH]cc(F)c(=O)[nH]1 + Cc1cccc(N(C)C(=O)C2C(O)CCN2c2nc(C)cc(C(F)(F)F)c2C#N)c1
IC50 (second compound 0.0316 µM): > 10 µM | IC50 (second compound 0.1 µM): > 10 µM | IC50 (second compound 0.316 µM): > 10 µM | IC50 (second compound 1 µM): > 10 µM | IC50 (second compound 3.16 µM): > 10 µM | IC50 (second compound 10 µM): > 10 µM | viability, T/C [1]: 97% | viability, T/C [2]: 104% | viability, T/C [3]: 94.7% | viability, T/C [4]: 89.7% | viability, T/C [5]: 79.4% | viability, T/C [6]: 57.8% | viability, T/C [7]: 93.3% | viability, T/C [8]: 97.2% | viability, T/C [9]: 89.3% | viability, T/C [10]: 102% | viability, T/C [11]: 75.9% | viability, T/C [12]: 62.3% | viability, T/C [13]: 104% | viability, T/C [14]: 107% | viability, T/C [15]: 100% | viability, T/C [16]: 109% | viability, T/C [17]: 75.1% | viability, T/C [18]: 64.8% | viability, T/C [19]: 101% | viability, T/C [20]: 105% | viability, T/C [21]: 94.6% | viability, T/C [22]: 88.2% | viability, T/C [23]: 70.7% | viability, T/C [24]: 66.4% | viability, T/C [25]: 101% | viability, T/C [26]: 90.1% | viability, T/C [27]: 104% | viability, T/C [28]: 85.6% | viability, T/C [29]: 79.5% | viability, T/C [30]: 65.7% | viability, T/C [31]: 115% | viability, T/C [32]: 102% | viability, T/C [33]: 93.8% | viability, T/C [34]: 89.9% | viability, T/C [35]: 78.6% | viability, T/C [36]: 74.6%
